Assay results as given in US5008267A, “Pyrimidinedione compounds, method of producing the same and antiarrythmic agents containing the same” (Mitsui Toatsu Chemicals, Incorporated, priority 1988, dated 1991).
Counter-ions that a name gives are not always drawn. Like-named read-outs stand apart in the source and are kept apart here.

Experiments:
[1] = tested on: Purkinje fiber of the right ventricular free wall (myocardial action potential); experiment: Influence on myocardial action potential duration time (APD75), isolated right ventricular free wall, microelectrode in Purkinje fiber; type: cell-based, dog; conditions: Canis lupus familiaris, 20 min
[2] = tested on: ventricular muscle refractory period; experiment: Influence on ventricular muscle refractory period (ERP); type: in vivo, mongrel dog; conditions: Canis lupus familiaris, iv, i.v., (W-Y)/Y×100, read-out: ERP (%; extensibility of refractory period)
Experimental: (2) Influence on ventricular muscle refractory period Refractory periods were measured in the following manner before and after each of the compounds and d-sotalol shown in Table 2 was separately administered to a vein or a duodenum, and ERP (%; extensibility of refractory period) was calculated from the measured values: ERP (%)=(W-Y)/Y×100 W: Refractory period after administration Y: Refractory period before administration To a mongrel adult dog, 30 mg/kg of pentobarbital was administered intravenously, and after being anesthetized, a pair of silver-silver chloride electrodes separated by 3 mm was sewn on an opened right ventricule, and electrical stimulation was given at an interval of 400 msec at a duration time of 4 msec under a current twice as much as the threshold. Afterward, a small amount of alcohol was injected into a sinus artery in order to extinguish a pacemaker activity, and the ventricular refractory period (ERP) was measured under ventricule pacing. That is, each 1 train comprised 10 stimulations having intervals of 400 msec, and an interval between the trains was usually 400 msec. However, this interval was shortened 10 msec by 10 msec at the time of the refractory period measurement, and an interval between the trains at the time when reaction to the first stimulation of the train disappeared was regarded as the refractory period. In this case, the electrical stimulation was fed in accordance with a program by a heart stimulation device (Diamedical Co., Ltd.; DHM-226-3).

[3] = 1.0 μg/ml, 20 minutes' incubation, (B-A)/A×100, read-out: APD75 (%)
[4] = 3.0 μg/ml, 20 minutes' incubation, (B-A)/A×100, read-out: APD75 (%)
[5] = 10.0 μg/ml, 20 minutes' incubation, (B-A)/A×100, read-out: APD75 (%)

For `COC(=O)c1ccc(OCCCN2CCN(c3cc(=O)n(C)c(=O)n3C)CC2)c([N+](=O)[O-])c1` [Compound 154, 1,3-dimethyl-6-{4-[3-(4-methoxycarbonyl-2-nitrophenyloxy)propyl]piperazin-1-yl}-2,4(1H,3H)-pyrimidinedione oxalate], the activation at 1 µg/mL [1, 3] was 9%, the activation at 3 µg/mL [1, 4] was 12% and the activation at 10 µg/mL [1, 5] was 20%. For the same molecule, the change in vivo at 0.1 mg/kg [2] was 0%, the change in vivo at 0.3 mg/kg [2] was 0% and the change in vivo at 1 mg/kg [2] was 5.9%. For the same molecule, the change in vivo at 3 mg/kg ([2]; 3.0 mg/kg) was 11.8%.
For `CC(=O)c1ccc(OCCN2CCN(c3cc(=O)n(C)c(=O)n3C)CC2)c([N+](=O)[O-])c1` [Compound 102], the activation at 1 µg/mL [1, 3] was 7% and the activation at 3 µg/mL [1, 4] was 20%.
In the case of `CC(=O)c1cc([N+](=O)[O-])ccc1NCCCN1CCN(c2cc(=O)n(C)c(=O)n2C)CC1` [Compound 120, 1,3-dimethyl-6-{4-[3-(2-acetyl-4-nitroanilino)propyl]piperazin-1-yl}-2,4(1H,3H)-pyrimidinedione oxalate], the activation at 1 µg/mL [1, 3] is reported as 16%, the activation at 3 µg/mL [1, 4] is reported as 27% and the activation at 10 µg/mL [1, 5] is reported as 29%.
`Cn1c(N2CCN(c3ccc([N+](=O)[O-])cc3)CC2)cc(=O)n(C)c1=O` [Compound 1, 1,3-dimethyl-6-[4-(4-nitrophenyl)piperazin-1-yl]-2,4(1H,3H)-pyrimidinedione] gave a change in vivo at 0.1 mg/kg [2] of 3.6%, a change in vivo at 0.3 mg/kg [2] of 3.6% and a change in vivo at 1 mg/kg [2] of 10.3%.
In the case of `Cn1c(N2CCN(CC(=O)Nc3ccc([N+](=O)[O-])cc3)CC2)cc(=O)n(C)c1=O` [Compound 47, 1,3-dimethyl-6-{4-[N-(4-nitrophenyl)carbamoylmethyl]piperazin-1-yl}-2,4(1H,3H)pyrimidinedione oxalate], the activation at 1 µg/mL [1, 3] is reported as 5%, the activation at 3 µg/mL [1, 4] is reported as 11% and the activation at 10 µg/mL [1, 5] is reported as 16%.
With `Cn1c(NCCNC2CCN(c3ccc([N+](=O)[O-])cc3)CC2)cc(=O)n(C)c1=O` [Compound 61, 1,3-dimethyl-6-{2-[[1-(4-nitrophenyl)piperidin-4-yl]amino]ethylamino}-2,4(1H,3H)-pyrimidinedione oxalate] the change in vivo at 0.1 mg/kg [2] was 8.3%, the change in vivo at 0.3 mg/kg [2] was 8.3% and the change in vivo at 1 mg/kg [2] was 8.3%.
With `COCCN(CCCc1ccc([N+](=O)[O-])cc1)CCNc1cc(=O)n(C)c(=O)n1C` [Compound 171, 1,3-dimethyl-6-{2-[N-(2-methoxyethyl)-3-(4-nitrophenyl)propylamino]ethylamino}-2,4(1H,3H)-pyrimidinedione oxalate] the activation at 1 µg/mL [1, 3] was 19%, the activation at 3 µg/mL [1, 4] was 23% and the activation at 10 µg/mL [1, 5] was 38%.
`Cn1c(N2CCN(CCCOc3ccc([N+](=O)[O-])cc3C(=O)c3ccccc3O)CC2)cc(=O)n(C)c1=O` [Compound 104, 1,3-dimethyl-6-{4-<3-[2-(2-hydroxybenzoyl)-4-nitrophenoxy]propyl>piperazin-1-yl}-2,4(1H,3H)-pyrimidinedione oxalate] gave an activation at 3 µg/mL [1, 4] of 16% and an activation at 10 µg/mL [1, 5] of 25%.
For `CCN(CCCNc1ccc([N+](=O)[O-])cc1)CCNc1cc(=O)n(C)c(=O)n1C` [Compound 73, 1,3-dimethyl-6-{2-[N-ethyl-3-(4-nitroanilino)propylamino]ethylamino}-2,4(1H,3H)-pyrimidinedione hydrochloride], the activation at 1 µg/mL [1, 3] was 2%, the activation at 3 µg/mL [1, 4] was 12% and the activation at 10 µg/mL [1, 5] was 18%.
Molecule `Cn1c(NCCN(CCO)CCCc2ccc([N+](=O)[O-])cc2)c([N+](=O)[O-])c(=O)n(C)c1=O` [Compound 180, 1,3-dimethyl-6-{2-[N-(2-hydroxethyl)-3-(4-nitrophenyl)propylamino]ethylamino}-5-nitro-2,4(1H,3H)-pyrimidinedione hydrochloride] has an activation at 1 µg/mL ([1]; read-out: APD75 (%)) of 11%, an activation at 3 µg/mL ([1]; read-out: APD75 (%)) of 20% and an activation at 10 µg/mL ([1]; read-out: APD75 (%)) of 26%.
`Cn1c(N2CCN(CCCNc3ccc([N+](=O)[O-])cc3)CC2)cc(=O)n(C)c1=O` [Compound 58] showed an activation at 1 µg/mL [1, 3] of 10%, an activation at 3 µg/mL [1, 4] of 18% and an activation at 10 µg/mL [1, 5] of 28%.
